Test results as given in patent US20180163250A1, “Screening Broths Comprising Esculatin Compounds for the Detection of Specific Microorganisms” (Neogen Corporation, priority 2016, published 2018).

Experiments:
[1] = test system: MRSA phosphatase activity; experiment: Confirmatory enzymatic test for MRSA phosphatase activity in the MRSA screening broth (initial investigation); type: cell-based, staphylococcus aureus; settings: substrate and ferric ammonium citrate added at end of incubation, or substrate included before incubation
Source text: MRSA detection broths based on the principle of mannitol and trehalose utilization and cefoxitin were designed to be a selective system for high throughput screening of clinical MRSA samples. The broths allow high volume screening of the majority of patient samples by a low cost method with confirmation of the few presumptive positive samples by rapid methods. The broths achieved good performance relative to Mannitol salts broth enrichment and/or direct plating (>98% sensitivity and >96 selectivity). In order to further enhance the selectivity of this broth system, the use of a confirmatory enzymatic test targeted at the MRSA phosphatase activity was investigated. […] Fluorogenic phosphatase substrate, although giving a confirming reaction, suffered from the disadvantage of nonspecific fluorescence in the broth probably due to compound stability, and also necessitated the use of non-auto fluorescent glass or plastic tubes. […]

[2] = test system: methicillin resistant staphylococcus aureus; experiment: CHE-phosphate in MRSA broth before and after FAC: MRSA strains; type: cell-based; settings: for Broth color after addition of FAC: 5 minutes at ambient temperature after FAC; for Broth color before addition FAC: LAB588, 37° C. for 22 hours
Source text: (§1) Scheme 2 above provides a pictorial representation of CHE-phosphate discriminating between methicillin resistant staphylococcus aureus and methicillin resistant coagulase negative Staphylococcus. The single phosphate group from CHE-phosphate is removed by the phosphatase activity of methicillin resistant staphylococcus aureus, but not by the coagulase negative staphylococcus, which lack this phosphatase activity. Addition of ferric ammonium citrate produces the dark, insoluble iron-3,4-cyclohexenoesculatin complex indicating the presence of methicillin resistant staphylococcus aureus. The dark complex is not formed between ferric ammonium citrate and CHE-phosphate, and therefore indicates the absence of phosphatase activity. Accordingly, a lack of a dark precipitate indicates the absence of methicillin resistant staphylococcus aureus.
(§2) A panel of MRSA strains and coagulase negative staphylococci (clinical isolates) were cultured and tested in MRSA broth with CHE-phosphate using the same methodology as Example 2 CHE-phosphate was Dissolved at 200 mg/ml in 50:50 mixture of dimethylformamide and water. LAB588 (MRSA broth, Lab M limited) pre-dispensed to 10 ml volumes was supplemented with 25 μL aliquots from the prepared stock solution. A 0.5 Macfarlane standard suspension of methicillin resistant staphylococcus aureus and coagulase negative staphylococci strains were prepared from 18-24 h cultures grown in tryptic soy broth (LAB004, Lab M Limited) at 37° C. These were diluted to an amount sufficient to inoculate each sample with 100-1000 cfu. Samples were then incubated at 37° C. for 22 hours and observed for growth and color change. 50 μL aliquots of a 250 mg/ml stock solution of Ferric ammonium citrate (FAC) was then added to each sample and allowed to incubate at ambient temperature for 5 minutes. The samples were then observed for blackening indicating phosphatase activity by the presence of free 3,4-cyclohexenoesculatin (Table 3).

[3] = test system: phosphatase activity of methicillin resistant staphylococcus aureus; experiment: Blackening after addition of ferric ammonium citrate (free CHE, phosphatase activity) in MRSA broth; type: cell-based; settings: for blackening after the addition of ferric ammonium citrate indicating the presence of free 3,4-cyclohexenoesculatin: 5 minutes at ambient temperature after FAC
Experimental: (§3) CHE-phosphate, and 3,4-cyclohexenoesculatin diphosphate were dissolved at 200 mg/ml in a 50:50 mixture of dimethylformamide and water. 5-bromo-4-chloroindoxyl phosphate was dissolved at 200 mg/ml in a 50:50 mixture of ethanol and water. The mixtures of compounds were added individually to a MRSA broth (LAB588; Lab M limited) pre-dispensed to 10 ml volumes, after supplementation with cefoxitin selective agent, as 25 μL additions from the prepared stock solutions.
(§4) A 0.5 Macfarlane standard suspension of methicillin resistant staphylococcus aureus strains were prepared from 18-24 h cultures grown in tryptic soy broth (LAB004; Lab M Limited) at 37° C. These were diluted and added to the MRSA broth samples in an amount sufficient to inoculate each sample with 100-1000 colony forming units (cfu). Target concentration was achieved by diluting a culture to a target level and inoculating sets of tubes at different inoculum dilutions so as to achieve the target range. The actual quantity inoculated was confirmed by plating 50 μl of the dilution onto Tryptone soy agar (LAB011) and incubating the plates for 18-24 h at 37° C. and counting the resulting colonies. This information was used to determine which tubes had been inoculated within the target dosing range.
(§5) The broth is designed to selectively indicate a positive presence of MRSA by a yellow color, or a presumptive positive presence of MRSA by an orange color (Table 1). To the CHE-phosphate and 3,4-cyclohexenoesculatin diphosphate was added 50 μL of a 250/mg/ml stock solution of Ferric ammonium citrate and samples were allowed to incubate at ambient temperature for 5 minutes.

[4] = test system: methicillin resistant coagulase negative staphylococcus (clinical isolates); experiment: CHE-phosphate in MRSA broth before and after FAC: coagulase negative staphylococci; type: cell-based; settings: for Broth color after addition of FAC: 5 minutes at ambient temperature after FAC; for Broth color before addition FAC: LAB588, 37° C. for 22 hours
Source text: as §1, §2

[5] = test system: methicillin resistant staphylococcus aureus strains; experiment: Growth and initial color change in MRSA screening broth (LAB588) containing the substrate; type: cell-based; settings: for Initial color change indicating the presence of MRSA: LAB588 broth with cefoxitin, 100-1000 cfu
Experimental: as §3, §4, §5

Q: With `O=c1oc2cc(O)c(OP(=O)(O)O)cc2c2c1CCCC2` [CHE-phosphate, sodium 3,4-cyclohexenoesculatin-6-phosphate (sodium 3-hydroxy-6-oxo-7,8,9,10-tetrahydro-6H-benzo[c]chromen-2-yl phosphate)] as the compound, how does the “Blackening reaction in the MRSA screening broth” value [1] read?
A: readily observable blackening reaction

Q: What about the “Broth color after addition of FAC” value ([2]; MRSA 3) of the same compound?
A: Black

Q: And the “Broth color before addition FAC” value ([2]; MRSA 3)?
A: Yellow

Q: And the “Broth color after addition of FAC” value ([2]; MRSA 15)?
A: Black

Q: And the “Broth color before addition FAC” value ([2]; MRSA 15)?
A: Yellow

Q: What about the “Broth color after addition of FAC” value ([2]; MRSA 16A) of the same compound?
A: Black

Q: What about the “Broth color before addition FAC” value ([2]; MRSA 16A) of the same compound?
A: Orange

Q: What about the “Broth color after addition of FAC” value ([2]; MRSA 16B) of the same compound?
A: Black

Q: What about the “Broth color before addition FAC” value ([2]; MRSA 16B) of the same compound?
A: Orange

Q: What about the “Broth color after addition of FAC” value ([2]; MRSA 75) of the same compound?
A: Black

Q: And the “Broth color before addition FAC” value ([2]; MRSA 75)?
A: Orange

Q: What about the “Broth color after addition of FAC” value ([2]; S. aureus NCTC 12493) of the same compound?
A: Black

Q: What about the “Broth color before addition FAC” value ([2]; S. aureus NCTC 12493) of the same compound?
A: Yellow

Q: What about the “Specificity for the phosphatase enzyme of MRSA versus methicillin resistant coagulase negative staphylococci” value ([2]; summary of Table 3) of the same compound?
A: specific for the phosphatase enzyme of MRSA

Q: What about the “blackening after the addition of ferric ammonium citrate indicating the presence of free 3,4-cyclohexenoesculatin” value (shortened to “blackening … of free 3,4-cyclohexenoesculatin”) ([3]; MRSA 3) of the same compound?
A: Blackening

Q: What about the “blackening … of free 3,4-cyclohexenoesculatin” value ([3]; MRSA 15) of the same compound?
A: Blackening

Q: What about the “blackening … of free 3,4-cyclohexenoesculatin” value ([3]; MRSA 15A (clinical isolate)) of the same compound?
A: Blackening

Q: And the “blackening … of free 3,4-cyclohexenoesculatin” value ([3]; MRSA 15B (clinical isolate))?
A: Blackening

Q: What about the “blackening … of free 3,4-cyclohexenoesculatin” value ([3]; MRSA 15 C (clinical isolate)) of the same compound?
A: Blackening

Q: And the “blackening … of free 3,4-cyclohexenoesculatin” value ([3]; MRSA 16A (clinical isolate))?
A: Blackening

Q: What about the “blackening … of free 3,4-cyclohexenoesculatin” value ([3]; MRSA 16B (clinical isolate)) of the same compound?
A: Blackening

Q: And the “blackening … of free 3,4-cyclohexenoesculatin” value ([3]; MRSA 16 C (clinical isolate))?
A: Blackening

Q: And the “blackening … of free 3,4-cyclohexenoesculatin” value ([3]; S. aureus NCTC 12493)?
A: Blackening

Q: And the “Specificity of enzymatic phosphatase activity for the substrate” value ([3]; summary of Table 2)?
A: specific

Q: What about the “Broth color after addition of FAC” value ([4]; CNS 22) of the same compound?
A: Orange

Q: What about the “Broth color before addition FAC” value ([4]; CNS 22) of the same compound?
A: Orange

Q: What about the “Broth color after addition of FAC” value ([4]; CNS 28) of the same compound?
A: yellow

Q: What about the “Broth color before addition FAC” value ([4]; CNS 28) of the same compound?
A: yellow

Q: What about the “Broth color after addition of FAC” value ([4]; CNS 33) of the same compound?
A: orange

Q: And the “Broth color before addition FAC” value ([4]; CNS 33)?
A: orange

Q: What about the “Initial color change indicating the presence of MRSA” value ([5]; MRSA 3) of the same compound?
A: Growth (yellow)

Q: And the “Initial color change indicating the presence of MRSA” value ([5]; MRSA 15)?
A: Growth (yellow)

Q: And the “Initial color change indicating the presence of MRSA” value ([5]; MRSA 15A (clinical isolate))?
A: Growth (yellow)

Q: And the “Initial color change indicating the presence of MRSA” value ([5]; MRSA 15B (clinical isolate))?
A: Growth (yellow)

Q: And the “Initial color change indicating the presence of MRSA” value ([5]; MRSA 15C (clinical isolate))?
A: Growth (orange)

Q: And the “Initial color change indicating the presence of MRSA” value ([5]; MRSA 16A (clinical isolate))?
A: Growth (orange)

Q: What about the “Initial color change indicating the presence of MRSA” value ([5]; MRSA 16B (clinical isolate)) of the same compound?
A: Growth (orange)

Q: And the “Initial color change indicating the presence of MRSA” value ([5]; MRSA 16C (clinical isolate))?
A: Growth (orange)

Q: What about the “Inhibition of the growth of MRSA” value ([5]; MRSA broth LAB588, summary of Table 1) of the same compound?
A: not inhibitory

Q: And the “Initial color change indicating the presence of MRSA” value ([5]; S. aureus NCTC 12493)?
A: Growth (yellow)
